Experimental data reported in patent publication US4997827A, “Compositions containing 5-α-dihydro-19-norethisterone and derivatives thereof for in vivo inhibition of aromatase” (Medical Foundation of Buffalo, Inc., priority 1989, dated 1991).
Entries after “also recorded” stand apart in the source; their conditions may differ.

Tests used:
rat ovarian aromatase = biological target: T1, rat ovarian aromatase (Rattus norvegicus, UniProt P22443); assay: in vivo effect on rat ovarian aromatase activity (3H-water method); details: for in vivo ovarian aromatase inactivation: Example 7, 50 mg/kg body weight/day, regularly cycling BUF/N rats, compared to sesame oil control; for suppression of the ovarian aromatase activity: 50 mg/kg body weight/day s.c. twice daily for four days, 4-day cycling BUF/N rats
T1 construct: from tissue; host or cells: ovaries of BUF/N inbred female rats, 105,000 x g precipitate of the homogenate
T1 sequence (P22443 1-508): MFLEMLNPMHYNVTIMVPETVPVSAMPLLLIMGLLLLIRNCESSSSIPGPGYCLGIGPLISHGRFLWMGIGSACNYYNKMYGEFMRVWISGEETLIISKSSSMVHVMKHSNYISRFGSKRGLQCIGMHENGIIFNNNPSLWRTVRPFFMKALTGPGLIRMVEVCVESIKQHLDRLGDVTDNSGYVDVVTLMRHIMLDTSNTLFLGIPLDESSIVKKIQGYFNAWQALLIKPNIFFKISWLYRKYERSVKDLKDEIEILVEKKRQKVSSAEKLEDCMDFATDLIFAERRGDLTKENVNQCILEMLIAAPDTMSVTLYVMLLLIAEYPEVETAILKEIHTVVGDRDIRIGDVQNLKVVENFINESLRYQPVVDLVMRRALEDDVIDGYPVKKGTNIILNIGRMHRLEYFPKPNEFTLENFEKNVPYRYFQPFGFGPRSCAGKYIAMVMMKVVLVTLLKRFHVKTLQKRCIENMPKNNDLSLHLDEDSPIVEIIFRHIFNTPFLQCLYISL
Method: 5α-DHNET (30 mg/ml sesame oil suspension) was injected s.c. twice daily for four days at a dose of 50 mg/kg body weight/day to BUF/N inbred female rats (50-80 days old) showing regular 4-day estrus cycles starting on the estrus day. The control group received injections of sesame oil in the same manner. Both ovaries were removed 3-4 hours after the final injection. The 105,000×g precipitate fraction of the ovarian homogenate was used for the aromatase assay. Aromatase activity was determined by the ^3 H-water method (F. L. Bellino, S. S. H. Gilani, S. S. Eng, Y. Osawa and W. L. Duax, Biochemistry, 15, 4730-4736 (1976)). The sedimented ovarian enzyme preparation was homogenized in 0.1 M phosphate buffer (pH 7.5) and incubated with [1β-^3 H, 4-^14 C]androstenedione (3.18×10^5 dpm ^3 H, 1.18×10^4 dpm ^14 C, 100.2 ng), NADPH (1 mg) and BSA (5 mg) in 0.1 M phosphate buffer (pH 7.5) in a total volume of 1.5 ml for 30 min at 37° C. Trichloroacetic acid solution (0.2 ml of 10% aqueous solution) was added to stop the enzyme reaction. Activated charcoal was added to the mixture and the spun supernatant was passed through a cotton plugged disposable pipet. The filtrate was counted for simultaneous ^3 H and ^14 C in a liquid scintillation spectrophotometer. The ^3 H-water released from the 1β-^3 H labeled androgen quantitatively corresponds to estrogen formation. The results of the in vivo aromatase suppression assay with 5α-DHNET, 6β-bromoandrostenedione (6β-BRA), and 6α-bromoandrostenedione (6α-BRA) are given in FIGS. 3, 4, and 5, respectively. 5α-DHNET suppressed 67% of the ovarian aromatase, whereas 6β-bromoandrostenedione suppressed 72% and 6α-bromoandrostenedione only an insignificant 10%.
A test of the acetate (C2) and n-butyrate (C4) on the in vivo effect on Ovarian Aromatase Activity was conducted. […] All procedures are the same as described in the above examples. […] The slightly better results obtained with the N-butyrate may be due to its higher solubility in sesame oil, indicating a higher retention in the body.

[1] = tested on: human placental aromatase; details: in vitro; for 5α-DHNET a partial inhibition; cited from earlier work
[2] = tested on: estrus cycle of BUF/N inbred female rats; assay: effect on the rat estrus cycle; assay type: in vivo; details: single s.c. dose 50 mg/kg body weight on proestrus day; 50 mg/kg
Method: BUF/N inbred female rats (50-80 days old) showing regular 4-day estrus cycles were selected by a daily vaginal smear test. A fine powder of the steroid sample was suspended in sesame oil (30 mg/ml) and injected subcutaneously on the proestrus day at a single dose of 50 mg/kg body weight. Vaginal smears were examined daily until normal estrus returned for at least three cycles. The results from the single injection of 5α-DHNET are given in FIG. 1 and those for 6β-bromoandrostenedione are given in FIG. 2 for comparison.

C#C[C@]1(OC(C)=O)CC[C@H]2[C@@H]3CC[C@H]4CC(=O)CC[C@@H]4[C@H]3CC[C@@]21C [5α-DHNET Ac, 5α-DHNET acetate]
in vivo ovarian aromatase inactivation (rat ovarian aromatase): 68.2%

C#C[C@]1(OC(=O)CCC)CC[C@H]2[C@@H]3CC[C@H]4CC(=O)CC[C@@H]4[C@H]3CC[C@@]21C [5α-DHNET But, 5α-DHNET butyrate]
in vivo ovarian aromatase inactivation (rat ovarian aromatase): 79.4%

C[C@]12CCC(=O)C=C1[C@@H](Br)C[C@@H]1[C@@H]2CC[C@]2(C)C(=O)CC[C@@H]12 [6α-bromoandrostenedione, reference compound]
concentration for inhibition of human placental aromatase in vitro [1]: 0.0082 µM | suppression of the ovarian aromatase activity (rat ovarian aromatase): 10%

C[C@]12CCC(=O)C=C1[C@H](Br)C[C@@H]1[C@@H]2CC[C@]2(C)C(=O)CC[C@@H]12 [6β-bromoandrostenedione, reference compound]
concentration for inhibition of human placental aromatase in vitro [1]: 0.056 µM | suppression of the ovarian aromatase activity (rat ovarian aromatase): 72% | effect on the estrus cycle [2]: no effect on the cycle; also recorded: failed to affect the estrus cycle
